Series [1] deals with E. coli. The series is described as follows: Antimicrobial susceptibility testing using PZT piezoelectric plate sensor (width mode resonance peak). It counts as cell-based. As to the method:
After the PZT sensor was insulated with MPS and coated with APS, it was immersed in 5 ml of DI water to monitor the stability of width mode frequency peak for more than 30 min. If the peak was symmetric and stable, the sensor could be used for the antimicrobial testing.
E. coli suspension in broth was prepared. The concentration was about 10^9 cells/mi. The following procedure was used to replace the broth with DI water, since the ions in the broth might affect the spectrum of the sensor. The suspension was centrifuged at 3000 rpm/min for 5 min and the supernatant was removed. 5 mL of DI water was then added to the tube and the E. coli was re-suspended in DI water.
For the first a few tests (Tests 1-3), a drop of E. coli suspension (20 μl) was put on the sensor surface. After 10 min, the sensor was washed with 400 ml of DI water in a glass beaker 3 times to remove the unbound bacteria. The sensor was then returned to 5 ml of DI water and its width mode peak was monitored. In Test 4, instead of putting a drop of suspension on the sensor, the sensor was soaked in the E. coli suspension for 10 min. The washing step for Test 4 was the same as mentioned above.
After the sensor with E. coli was monitored for 5-10 min, various amounts of ampicillin were added to the DI water every 5 min to determine whether the antibiotics would have an effect on the frequency peak. For Test 1, 1 mg/ml ampicillin solution was made. Different volumes of the ampicillin solution ([…]) were added to the 5 ml of DI water to make the final concentrations of the ampicillin 1, 2, 4, 8, 16, and 32 μg/ml. In Tests 2-4 20 μl of ampicillin solutions of different concentrations (0.25, 0.25, 0.5, 1, 2, and 4 mg/ml) were added each time to make the final concentration of the ampicillin to 1, 2, 4, 8, 16, and 32 μg/ml.
To characterize the roundness of the peak shape, the raw data was smoothed first (as shown in FIG. 15. The amount of variation of the raw data from the smoothed data was calculated as the standard deviation (SD) of the raw data. The width of the top of the peak could be found when the phase angle was 1 times SD (or 2 times SD) smaller than the maximum phase angle in smoothed data. The more round the peak was, the smaller the width of the top of the peak would be. On the other hand, the more flat the peak was, the larger the width of the top of the top of the peak would be.

Series [2] in a line: pH of ampicillin solution measured using pH paper. It counts as physicochemical. The note with it: 1 mg/ml.
The test system of series [3] is E. coli. The note with it: known MIC for the E. coli strain tested; cited from earlier work.

Converted amounts (≈) assume the structure as drawn.

With `CC1(C)S[C@@H]2[C@H](NC(=O)[C@H](N)c3ccccc3)C(=O)N2[C@H]1C(=O)O` [ampicillin], the “change of SD of peak frequency after adding ampicillin, compared to the SD with E. coli” value with E. coli [1] (Test 1) was “decreased a lot”. The “ampicillin concentration at which the SD of the peak frequency reached its minimal point” value in the series on E. coli [1] (Test 1 (results similar in Tests 2 and 3), E. coli on sensor in DI water, ampicillin 1-32 μg/ml added every 5 min) stood at 8 µg/mL. In addition, the “change of width of the top of the peak after adding ampicillin” value with E. coli [1] (Test 4, different sensor, pH adjusted ampicillin, sensor soaked in E. coli suspension) was “decreased”; in the series on E. coli [1] (Tests 1-3), “started to decrease”. The “pH value of the ampicillin solution” value in series [2] is reported as 3. Also, the “minimal inhibitory concentration (MIC)” value in the series with E. coli [3] was 8 µg/mL (≈ 22.9 µM).
